Test results as given in PMC6979384, “Characterization of the plant homeodomain (PHD) reader family for their histone tail interactions” (Epigenetics & Chromatin, 2020).

Legend:
[1] = dCypher AlphaScreen Phase A, optimal reader concentration range; format: binding; conditions: 100 nM biotinylated peptide; 30 min + 60 min at 23 °C; AlphaLISA; n = 2
Description: Fig. 3 dCypher histone peptide-binding assays define the PTM recognition preference of PHD proteins with high sensitivity. a–h Binding curves to determine optimal reader protein concentration for full peptide library screening on the dCypher® AlphaScreen® platform (see “Methods”). X-axes are log(protein concentration (M)) at constant peptide concentration (100 nM); Y-axes are AlphaScreen counts, representing relative strength of binding (n = 2; error bars are S.D.). i Heat map represents relative binding to H3 N-terminal peptides (left) by PHD-containing GST-tagged proteins (top) using the dCypher AlphaScreen platform. Protein concentrations can be found in Additional file 5: Table S4. Binding strength is indicated by color gradient from green to yellow (stronger to weaker). The asterisk (*) by MLL5 signifies its general preference for H3K4 methylation. Alpha counts (n = 2) were normalized individually for each protein to the highest signal for each respective assay. For full dCypher peptide screen data, see Additional file 4: Table S3
We next employed a highly sensitive proximity-based AlphaScreen histone peptide assay (dCypher®) to provide a third and orthogonal approach to analyzing the histone binding preferences for a subset of the 31 PHD proteins with respect to various histone tail PTMs. In this assay, biotinylated peptides are bound to streptavidin “donor” beads and the GST-tagged reader domains bound to Glutathione “acceptor” beads. […] Initial binding assays were conducted for each fusion protein using three peptides [H3 (1–20) with K4me0, H3K4me3 or H3K9me3] to determine the optimal reader domain concentration for full peptide library studies (Fig. 3a–h; Additional file 4: Table S3 and Additional file 5: Table S4). […]
The dCypher peptide screen assay was performed as previously described. […] Plates were incubated at 23 °C in subdued lighting for 60 min and AlphaLISA signal measured on a PerkinElmer 2104 EnVision (680 nm laser excitation, 570 nm emission filter ± 50 nm bandwidth). […]

H3K4me0 readers = test: dCypher AlphaScreen Phase B (full peptide screen), H3K4me0 readers together; format: binding, human; conditions: 100 nM peptide, 23 °C, n = 2
Description: Fig. 3 dCypher histone peptide-binding assays define the PTM recognition preference of PHD proteins with high sensitivity. a–h Binding curves to determine optimal reader protein concentration for full peptide library screening on the dCypher® AlphaScreen® platform (see “Methods”). X-axes are log(protein concentration (M)) at constant peptide concentration (100 nM); Y-axes are AlphaScreen counts, representing relative strength of binding (n = 2; error bars are S.D.). i Heat map represents relative binding to H3 N-terminal peptides (left) by PHD-containing GST-tagged proteins (top) using the dCypher AlphaScreen platform. Protein concentrations can be found in Additional file 5: Table S4. […]
Once the optimal protein concentration ranges for each of the eight readers were determined, we conducted the full dCypher peptide screen (293 histone peptides) (Fig. 3i; Additional file 4: Table S3).
The dCypher peptide screen assay was performed as previously described. Briefly, 5 μL of GST-tagged reader domains (optimal protein concentration for library screening determined by initial binding curves to candidate peptides) were incubated with 5 μL of 400 nM (100 nM Final) biotinylated histone peptides (EpiCypher) for 30 min at 23 °C in 1× AlphaLISA Epigenetics buffer + epigenetics buffer supplement (PerkinElmer, AL1008) in a 384-well plate. […]

PHRF1 (RP) = test: Histone peptide microarray; format: binding, human; conditions: sheet "Array Heatmap"; GST-tagged reader; histone peptide array, total n = 4
Method in brief: (§1)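 Binding of recombinant GST-fused PHD readers (0.5 μM) is detected on an array of 293 histone peptides, modified singly or in combination. An optimized array protocol is followed, and each intensity is the average of quadruplicate measurements with standard deviation.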

BPTF (PB) = test: Histone peptide microarray; format: binding, human; conditions: sheet "Array Heatmap"; GST-tagged reader; histone peptide array, total n = 4
Method in brief: as §1

ING4 = test: Histone peptide microarray; format: binding, human; conditions: sheet "Array Heatmap"; GST-tagged reader; histone peptide array, total n = 4
Method in brief: as §1

CHD4 (PPCC) = test: Histone peptide microarray; format: binding, human; conditions: sheet "Array Heatmap"; GST-tagged reader; histone peptide array, total n = 4
Method in brief: as §1

DPF2 (PPC2W2) = test: Histone peptide microarray; format: binding, human; conditions: sheet "Array Heatmap"; GST-tagged reader; histone peptide array, total n = 4
Method in brief: as §1

PHF8 = test: Histone peptide microarray; format: binding, human; conditions: sheet "Array Heatmap"; GST-tagged reader; histone peptide array, total n = 4
Method in brief: as §1

KDM5A (3) = test: Histone peptide microarray; format: binding, human; conditions: sheet "Array Heatmap"; GST-tagged reader; histone peptide array, total n = 4
Method in brief: as §1

PHF21A = test: Histone peptide microarray; format: binding, human; conditions: sheet "Array Heatmap"; GST-tagged reader; histone peptide array, total n = 4
Method in brief: as §1

PHF2 = test: Histone peptide microarray; format: binding, human; conditions: sheet "Array Heatmap"; GST-tagged reader; histone peptide array, total n = 4
Method in brief: as §1

TAF3 = test: Histone peptide microarray; format: binding, human; conditions: sheet "Array Heatmap"; GST-tagged reader; histone peptide array, total n = 4
Method in brief: as §1

MORC3 (CW) = test: Histone peptide microarray; format: binding, human; conditions: sheet "Array Heatmap"; GST-tagged reader; histone peptide array, total n = 4
Method in brief: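 GST-tagged PHD readers, 0.5 μM, probed on a microarray of 293 synthetic histone peptides carrying single or combinatorial PTMs (optimized Petell protocol). Signals are averaged over 4 replicates and expressed as relative binding.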

PHF13 = test: Histone peptide microarray; format: binding, human; conditions: sheet "Array Heatmap"; GST-tagged reader; histone peptide array, total n = 4
Method in brief: as §1

RAG2 = test: Histone peptide microarray; format: binding, human; conditions: sheet "Array Heatmap"; GST-tagged reader; histone peptide array, total n = 4
Method in brief: as §1

ING5 = test: Histone peptide microarray; format: binding, human; conditions: sheet "Array Heatmap"; GST-tagged reader; histone peptide array, total n = 4
Method in brief: as §1

MLL5 = test: Histone peptide microarray; format: binding, human; conditions: sheet "Array Heatmap"; GST-tagged reader; histone peptide array, total n = 4
Method in brief: as §1

CHD5 (PPCC) = test: Histone peptide microarray; format: binding, human; conditions: sheet "Array Heatmap"; GST-tagged reader; histone peptide array, total n = 4
Method in brief: as §1

KDM5B (1) = test: Histone peptide microarray; format: binding, human; conditions: sheet "Array Heatmap"; GST-tagged reader; histone peptide array, total n = 4
Method in brief: as §1

DIDO1 = test: Histone peptide microarray; format: binding, human; conditions: sheet "Array Heatmap"; GST-tagged reader; histone peptide array, total n = 4
Method in brief: as §1

KDM5A (1) = test: Histone peptide microarray; format: binding, human; conditions: sheet "Array Heatmap"; GST-tagged reader; histone peptide array, total n = 4
Method in brief: as §1

ING3 = test: Histone peptide microarray; format: binding, human; conditions: sheet "Array Heatmap"; GST-tagged reader; histone peptide array, total n = 4
Method in brief: as §1

ING2 = test: Histone peptide microarray; format: binding, human; conditions: sheet "Array Heatmap"; GST-tagged reader; histone peptide array, total n = 4
Method in brief: as §1

PHF23 = test: Histone peptide microarray; format: binding, human; conditions: sheet "Array Heatmap"; GST-tagged reader; histone peptide array, total n = 4
Method in brief: as §1

AIRE (PP) = test: Histone peptide microarray; format: binding, human; conditions: sheet "Array Heatmap"; GST-tagged reader; histone peptide array, total n = 4
Method in brief: as §1

KDM7A = test: Histone peptide microarray; format: binding, human; conditions: sheet "Array Heatmap"; GST-tagged reader; histone peptide array, total n = 4
Method in brief: as §1

KDM5B (3) = test: Histone peptide microarray; format: binding, human; conditions: sheet "Array Heatmap"; GST-tagged reader; histone peptide array, total n = 4
Method in brief: as §1

CHD5 (PCC) = test: Histone peptide microarray; format: binding, human; conditions: sheet "Array Heatmap"; GST-tagged reader; histone peptide array, total n = 4
Method in brief: as §1

SP140L = test: Histone peptide microarray; format: binding, human; conditions: sheet "Array Heatmap"; GST-tagged reader; histone peptide array, total n = 4
Method in brief: as §1

ING1 = test: Histone peptide microarray; format: binding, human; conditions: sheet "Array Heatmap"; GST-tagged reader; histone peptide array, total n = 4
Method in brief: as §1

BAZ2B = test: Histone peptide microarray; format: binding, human; conditions: sheet "Array Heatmap"; GST-tagged reader; histone peptide array, total n = 4
Method in brief: as §1

TRIM66 (PB) = test: Histone peptide microarray; format: binding, human; conditions: sheet "Array Heatmap"; GST-tagged reader; histone peptide array, total n = 4
Method in brief: as §1

KDM4C (TTP) = test: Histone peptide microarray; format: binding, human; conditions: sheet "Array Heatmap"; GST-tagged reader; histone peptide array, total n = 4
Method in brief: as §1

## DIDO1: GST-tagged PHD, 250-340
[1]
  Phase A Optimal Range (reader concentration): 0.015 to 0.5 nM

## H3K9me3 + S10p: H3 1-20
H3K4me0 readers
  loss of binding on S10 phosphorylation: four out of five of the H3K4me0 readers lose binding capacity
PHRF1 (RP)
  Array Heatmap signal, PHRF1 (RP): 0.515
BPTF (PB)
  Array Heatmap signal, BPTF (PB): 0.3029
ING4
  Array Heatmap signal, ING4: 0.3907
CHD4 (PPCC)
  Array Heatmap signal, CHD4 (PPCC): 0.5281
DPF2 (PPC2W2)
  Array Heatmap signal, DPF2 (PPC2W2): 0.6544
PHF8
  Array Heatmap signal, PHF8: 0.3127
KDM5A (3)
  Array Heatmap signal, KDM5A (3): 0.3848
PHF21A
  Array Heatmap signal, PHF21A: 0.4454
PHF2
  Array Heatmap signal, PHF2: 0.4043
TAF3
  Array Heatmap signal, TAF3: 0.2418
MORC3 (CW)
  Array Heatmap signal, MORC3 (CW): 0.3534
PHF13
  Array Heatmap signal, PHF13: 0.5317
RAG2
  Array Heatmap signal, RAG2: 0.2135
ING5
  Array Heatmap signal, ING5: 0.3112
MLL5
  Array Heatmap signal, MLL5: 0.5167
CHD5 (PPCC)
  Array Heatmap signal, CHD5 (PPCC): 0.486
KDM5B (1)
  Array Heatmap signal, KDM5B (1): 0.7016
DIDO1
  Array Heatmap signal, DIDO1: 0.5964
KDM5A (1)
  Array Heatmap signal, KDM5A (1): 0.4357
ING3
  Array Heatmap signal, ING3: 0.3956
ING2
  Array Heatmap signal, ING2: 0.5763
PHF23
  Array Heatmap signal, PHF23: 0.4606
AIRE (PP)
  Array Heatmap signal, AIRE (PP): 0.5449
KDM7A
  Array Heatmap signal, KDM7A: 0.3788
KDM5B (3)
  Array Heatmap signal, KDM5B (3): 0.4113
CHD5 (PCC)
  Array Heatmap signal, CHD5 (PCC): 0.7991
SP140L
  Array Heatmap signal, SP140L: 0.319
ING1
  Array Heatmap signal, ING1: 0.4648
BAZ2B
  Array Heatmap signal, BAZ2B: 0.4277
TRIM66 (PB)
  Array Heatmap signal, TRIM66 (PB): 0.578
KDM4C (TTP)
  Array Heatmap signal, KDM4C (TTP): 0.4574

## KDM7A: GST-tagged PHD, 1-100
[1]
  Phase A Optimal Range (reader concentration): 0.05 to 1 nM

## MLL5: GST-tagged PHD, 100-180
[1]
  Phase A Optimal Range (reader concentration): 0.015 to 0.05 nM
